In patent US20260002121A1, “IMPROVED METHODS OF PREPARING DIFFERENT MESODERM CELL TYPES” (Children's Hospital Medical Center, priority 2021, published 2026):

Key:
hPSC-derived mesoderm = assay: Quantitative RT-PCR gene expression of differentiating mesoderm (Example 11); type: cell-based, human; conditions: longer and higher levels of Wnt activation (CHIR timing)
Method: Total RNA was prepared from differentiating human ES cells by using Nucleospin kit according to manufacturer's protocol. Reverse transcription PCR was performed by Superscript VILO cDNA synthesis kit. QuantStudio 5 and 6 were used for qPCR analyses. Statistics were performed with PRISM8 (GraphPad Software). Significance was determined by one-way ANOVA, followed by Tukey's test.
After SpM differentiation, the cells can be observed with an inverted microscope. The cells should be at 100% confluency (FIG. 9A). The efficiency of SpM induction can be checked by immunostaining for FOXF1 and/or ISL1, or expression of relative gene profiles as provided in Table 1.
The efficiency of organ-specific mesoderm differentiation can be checked by immunostaining for WT1, PITX1, FOXF1, NKX6.1, and/or TBX5, or expression of relative gene profiles as provided in Table 1.

[1] = tested on: hPSC-derived lateral plate mesoderm / splanchnic mesoderm cultures; assay: RT-PCR of marker genes in hPSC-derived lateral plate/splanchnic mesoderm cultures (Example 9); type: cell-based, human; conditions: primitive SM treated d4-d7
Method: Differentiation of hPSCs into lateral plate mesoderm was induced using previously described methods with modifications. In brief, partially confluent hPSCs were dissociated into very fine clumps in Accutase (Invitrogen) and passaged 1:18 onto new Geltrex-coated 24-well plates for immunocytochemistry and 12-well plates for RNA preparation in mTeSR1 with 1 μM thiazovivin (Tocris) ([…]). Next day, a brief wash with DMEM/F12 was followed with Day 0 medium (30 ng/mL Activin A (Cell Guidance Systems), 40 ng/mL. BMP4 (R&D Systems), 6 μM CHIR99021 (Tocris), 20 ng/mL FGF2 (Thermo Fisher), 100 nM PIK90 (EMD Millipore)) for 24 hours. A basal media composed of Advanced DMEM/F12, N2, B27, 15 mM HEPES, 2 mM […], penicillin-streptomycin was used for this Day 0 medium and all subsequent differentiations. On Day 1, a brief wash with DMEM/F12 was followed with Day 1 medium (1 μM A83-01 (Tocris), 30 ng/mL BMP4, 1 μM C59 (Cellagen Technology)) for 24 hours. For cardiac mesoderm generation, cells were cultured in 1 μM A83-01, 30 ng/mL BMP4, 1 μM C59, 20 ng/mL FGF2 from Day 2 to Day 4 (medium changed every day). From Day 4, cells were cultured in 200 μg/mL 2-phospho-ascorbic acid (Sigma), 1 μM XAV939 (Sigma), 30 ng/mL BMP4 for 3 days. […] Significance was determined by one-way ANOVA, followed by Tukey's test.

Structure (SMILES) | NKX6-1 expression (hPSC-derived mesoderm) | WNT2 expression (hPSC-derived mesoderm) | organ-specific SM-like lineage identity (gene expression) [1]
Cc1c[nH]c(-c2cnc(NCCNc3ccc(C#N)cn3)nc2-c2ccc(Cl)cc2Cl)n1 [CHIR, CHIR99021] | suppressed | promoted | –
c1ccc2c(Oc3nc(Nc4ccc(N5CCOCC5)cc4)c4ncn(C5CCCCC5)c4n3)cccc2c1 [HH-agonist, purmorphamine] | – | – | promoted gut tube identity and efficiently blocked the hepatic fate
